Where a SMILES comes first, the peptide text is derived from it.
How the values were obtained:
[1] = test system: P. aeruginosa (Liberec) biofilm; experiment: Bacterial biofilm, remaining metabolic activity (MTT); type: cell-based, Pseudomonas aeruginosa; details: remaining metabolic activity of biofilm, 20 h
Procedure, shortened: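 Biofilms of S. aureus or P. aeruginosa (Liberec) were grown 24 h at 37° C with shaking in BHI plus 1% glucose from ca. 10^8 CFU/ml inocula. After washing, biofilms were exposed 20 h to peptides at 1–128 μmol.l^−1. Surviving metabolic activity was measured by MTT (40 min, formazan in DMSO, A540) as percent of untreated biofilm, blank-corrected.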

[2] = test system: Candida albicans ATCC MYA-2876; experiment: microbe, parasite or virus in culture; type: cell-based; details: RPMI broth microdilution, 35° C., 48 hours, visual
Procedure, shortened: (§1)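 Five colonies from 24 h cultures were suspended in saline to OD600 0.18 and diluted 1:50 and then 1:20 into RPMI 1640 containing MOPS. This inoculum was mixed 1:1 with peptide dilutions of 0.625–160 μmol.l^−1. After 48 h at 35 °C, the MIC was scored by eye as the first well lacking growth.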

Candida krusei ATCC 6258 = experiment: microbe, parasite or virus in culture; type: cell-based; details: RPMI broth microdilution, 35° C., 48 hours, visual
Procedure, shortened: as §1

[3] = test system: Candida tropicalis ATCC 750; experiment: microbe, parasite or virus in culture; type: cell-based; details: RPMI broth microdilution, 35° C., 48 hours, visual
Procedure, shortened: as §1

[4] = test system: Candida dubliniensis ATCC MYA-646; experiment: microbe, parasite or virus in culture; type: cell-based; details: RPMI broth microdilution, 35° C., 48 hours, visual
Procedure, shortened: as §1

[5] = test system: Candida albicans (Olomouc); experiment: microbe, parasite or virus in culture; type: cell-based; details: RPMI broth microdilution, 35° C., 48 hours, visual
Procedure, shortened: as §1

[6] = test system: Candida glabrata ATCC 2001; experiment: microbe, parasite or virus in culture; type: cell-based; details: RPMI broth microdilution, 35° C., 48 hours, visual
Procedure, shortened: as §1

Candida glabrata DSY 565 = experiment: microbe, parasite or virus in culture; type: cell-based; details: RPMI broth microdilution, 35° C., 48 hours, visual
Procedure, shortened: as §1

CCCC[C@H](NC(=O)[C@H](CC(C)C)NC(=O)[C@H](CO)NC(=O)[C@H](CO)NC(=O)[C@H](CCCC)NC(=O)[C@@H](NC(=O)CN)[C@@H](C)CC)C(=O)N[C@@H](CCCCN)C(=O)N[C@@H](CCCCN)C(=O)N[C@@H](CC(C)C)C(=O)N[C@@H](CCCCN)C(=O)N[C@@H](CCCCN)C(=O)N[C@H](C(=O)N[C@H](C(=O)N[C@@H](C)C(=O)N[C@@H](CCCCN)C(N)=O)[C@@H](C)CC)[C@@H](C)CC [V] (HELM PEPTIDE1{G.I.[Nle].S.S.L.[Nle].K.K.L.K.K.I.I.A.K.[am]}$$$$V2.0)
Metabolic activity (%) P. aeruginosa (Liberec) ([1]; peptide concentration 8 μmol · l^−1): 65.5% | Metabolic activity (%) P. aeruginosa (Liberec) ([1]; peptide concentration 16 μmol · l^−1): 59.8% | Metabolic activity (%) P. aeruginosa (Liberec) ([1]; peptide concentration 32 μmol · l^−1): 64.9% | Metabolic activity (%) P. aeruginosa (Liberec) ([1]; peptide concentration 64 μmol · l^−1): 61.4% | Metabolic activity (%) P. aeruginosa (Liberec) ([1]; peptide concentration 128 μmol · l^−1): 49.3% | Antifungal activity MIC C. albicans ATCC MYA-2876 [2]: 19.0 µM | Antifungal activity MIC C. krusei ATCC 6258 (Candida krusei ATCC 6258): 5.0 µM | Antifungal activity MIC C. tropicalis ATCC 750 [3]: 1.0 µM | Antifungal activity MIC C. dubliniensis ATCC MYA-646 [4]: 26.0 µM | Antifungal activity MIC C. albicans Olomouc [5]: 12.0 µM | Antifungal activity MIC C. glabrata ATCC 2001 [6]: 24.0 µM | Antifungal activity MIC C. glabrata DSY 565 (Candida glabrata DSY 565): 44.0 µM

Reference: patent publication US10160785B2, “Antimicrobial peptides and their use for the treatment of topical infections” (priority 2015, dated 2018)
